What was measured:
Test in all cases: combination Emax (second highest fraction inhibited in the dose matrix, 72 h); higher = more inhibition; extreme values may be limits of the assay
NB14 (Neuroblastoma) = tested on: NB14 (Neuroblastoma)
How it was run: (§1)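 Cell lines in DMEM/F12 or RPMI with 10% FBS were plated in 1536-well plates, held 24 hours at 37°C, 5% CO2, then given two-drug dose matrices for 72 hours (DMSO typically 0.2%). Viability was read by CellTiter-Glo 2.0 luminescence and scaled as inhibition from 0 (vehicle wells) to 1 (blank wells). Combination Emax is the second-highest inhibition in the matrix; Bliss excess is observed combination effect minus expected EA + EB − EA·EB, EA and EB being single-agent effects.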

[1] = tested on: K5 (Thyroid Gland Carcinoma)
How it was run: as §1

[2] = tested on: SW1116 (Colorectal Carcinoma)
How it was run: as §1

[3] = tested on: CAPAN-1 (Pancreatic Carcinoma)
How it was run: as §1

NCI-H2795 (Mesothelioma) = tested on: NCI-H2795 (Mesothelioma)
How it was run: as §1

[4] = tested on: LoVo (Colorectal Carcinoma)
How it was run: as §1

[5] = tested on: OC-314 (Ovarian Carcinoma)
How it was run: as §1

[6] = tested on: HARA (Squamous Cell Lung Carcinoma)
How it was run: as §1

[7] = tested on: NCI-H69 (Small Cell Lung Carcinoma)
How it was run: as §1

[8] = tested on: PCI-30 (Head and Neck Carcinoma)
How it was run: as §1

[9] = tested on: 8305C (Thyroid Gland Carcinoma)
How it was run: as §1

[10] = tested on: Hs-633T (Other Solid Carcinomas)
How it was run: as §1

[11] = tested on: CAL-54 (Kidney Carcinoma)
How it was run: as §1

[12] = tested on: SUP-T1 (T-Lymphoblastic Leukemia)
How it was run: as §1

[13] = tested on: RT-112 (Bladder Carcinoma)
How it was run: as §1

[14] = tested on: SK-OV-3 (Ovarian Carcinoma)
How it was run: as §1

[15] = tested on: HDLM-2 (Hodgkin's Lymphoma)
How it was run: as §1

NCI-H28 (Mesothelioma) = tested on: NCI-H28 (Mesothelioma)
How it was run: as §1

[16] = tested on: RPMI-6666 (Non-Cancerous)
How it was run: as §1

[17] = tested on: MDA-MB-468 (Breast Carcinoma)
How it was run: as §1

SMILES | combination Emax (NB14 (Neuroblastoma)) | combination Emax [1] | combination Emax [2] | combination Emax [3] | combination Emax (NCI-H2795 (Mesothelioma)) | combination Emax [4] | combination Emax [5] | combination Emax [6] | combination Emax [7] | combination Emax [8] | combination Emax [9] | combination Emax [10] | combination Emax [11] | combination Emax [12] | combination Emax [13] | combination Emax [14] | combination Emax [15] | combination Emax (NCI-H28 (Mesothelioma)) | combination Emax [16] | combination Emax [17]
C[C@@H](Nc1cc(F)cc(F)c1)c1cc(C(=O)N(C)C)cc2c(=O)cc(N3CCOCC3)oc12 [AZD8186] + C1CN(CCC1(C(=O)N[C@@H](CCO)C2=CC=C(C=C2)Cl)N)C3=NC=NC4=C3C=CN4 [AZD5363] (first compound max 10 µM, 7x7, partner max 10 µM) | 0.213 | 0.466 | 0.206 | 0.204 | 0.409 | 0.644 | 0.562 | 0.467 | 0.536 | 0.313 | 0.369 | 0.297 | 0.683 | 0.553 | 0.254 | 0.426 | 0.235 | 0.359 | 0.672 | 0.571
C[C@@H](Nc1cc(F)cc(F)c1)c1cc(C(=O)N(C)C)cc2c(=O)cc(N3CCOCC3)oc12 [AZD8186] + CC(=O)c1c(C)c2cnc(Nc3ccc(N4CCNCC4)cn3)nc2n(C2CCCC2)c1=O [Palbociclib] (first compound max 10 µM, 7x7, partner max 10 µM) | 0.536 | 0.509 | 0.175 | 0.247 | 0.53 | 0.736 | 0.594 | 0.589 | 0.558 | 0.353 | 0.564 | 0.586 | 0.755 | 0.651 | 0.352 | 0.394 | 0.333 | 0.434 | 0.691 | 0.571
C[C@@H](Oc1cc(-c2cnn(C3CCNCC3)c2)cnc1N)c1c(Cl)ccc(F)c1Cl [Crizotinib] + CC1=C(C(=CC=C1)Cl)NC(=O)C2=CN=C(S2)NC3=CC(=NC(=N3)C)N4CCN(CC4)CCO [Dasatinib] (first compound max 10 µM, 7x7, partner max 2 µM) | 0.976 | 0.81 | 0.619 | 0.285 | 0.918 | 0.505 | 0.838 | 0.757 | 0.771 | 0.721 | 0.843 | 1 | 0.888 | 0.837 | 0.974 | 0.391 | 0.226 | 0.772 | 0.686 | 0.776
C[C@@H](Oc1cc(-c2cnn(C3CCNCC3)c2)cnc1N)c1c(Cl)ccc(F)c1Cl [Crizotinib] + Cn1cnc2c(F)c(Nc3ccc(Br)cc3Cl)c(C(=O)NOCCO)cc21 [Selumetinib] (first compound max 10 µM, 7x7, partner max 10 µM) | 0.966 | 0.682 | 0.518 | 0.571 | 0.918 | 0.557 | 0.494 | 0.59 | 0.621 | 0.238 | 0.801 | 0.896 | 0.565 | 0.823 | 0.819 | 0.249 | 0.193 | 0.438 | 0.672 | 0.673
O=C(c1cc(Cc2n[nH]c(=O)c3ccccc23)ccc1F)N1CCN(C(=O)C2CC2)CC1 [Olaparib] + CC1(C)CCC(CN2CCN(c3ccc(C(=O)NS(=O)(=O)c4ccc(NCC5CCOCC5)c([N+](=O)[O-])c4)c(Oc4cnc5[nH]ccc5c4)c3)CC2)=C(c2ccc(Cl)cc2)C1 [Venetoclax] (first compound max 10 µM, 7x7, partner max 1 µM) | 0.465 | 0.156 | 0.097 | 0.225 | 0.284 | 0.206 | 0.188 | 0.137 | 0.614 | 0.173 | 0.232 | 0.186 | 0.177 | 0.479 | 0.0956 | 0.139 | 0.322 | 0.118 | 0.72 | 0.314
O=C(c1cc(Cc2n[nH]c(=O)c3ccccc23)ccc1F)N1CCN(C(=O)C2CC2)CC1 [Olaparib] + CN(CC[C@H](CSC1=CC=CC=C1)NC2=C(C=C(C=C2)S(=O)(=O)NC(=O)C3=CC=C(C=C3)N4CCC(CC4)[C@H](C5=CC=CC=C5C6=CC=C(C=C6)Cl)O)S(=O)(=O)C(F)(F)F)CCO [AZD4320] (first compound max 10 µM, 7x7, partner max 1 µM) | 0.882 | 0.199 | 0.118 | 0.663 | 0.451 | 0.187 | 0.262 | 0.162 | 0.954 | 0.188 | 0.385 | 0.2 | 0.236 | 0.602 | 0.153 | 0.219 | 0.878 | 0.168 | 0.94 | 0.684
O=C(c1cc(Cc2n[nH]c(=O)c3ccccc23)ccc1F)N1CCN(C(=O)C2CC2)CC1 [Olaparib] + COc1nnc2ccc(N3CCC(c4ccc(OCCN5CCN(C)C(=O)[C@H]5C)cc4)CC3)nn12 [AZD5153] (first compound max 10 µM, 7x7, partner max 1 µM) | 0.574 | 0.611 | 0.332 | 0.418 | 0.651 | 0.436 | 0.798 | 0.582 | 0.488 | 0.251 | 0.495 | 0.612 | 0.737 | 0.792 | 0.157 | 0.516 | 0.356 | 0.422 | 0.633 | 0.503
O=C(c1cc(Cc2n[nH]c(=O)c3ccccc23)ccc1F)N1CCN(C(=O)C2CC2)CC1 [Olaparib] + Cc1c2c(nn1C)CSCc1cc(n(C)n1)CSc1cc(c3ccccc3c1)OCCCc1c(C(=O)O)n(C)c3c-2c(Cl)ccc13 [AZD5991] (first compound max 10 µM, 7x7, partner max 1 µM) | 0.595 | 0.0887 | 0.0456 | 0.366 | 0.748 | 0.162 | 0.191 | 0.277 | 0.239 | 0.103 | 0.311 | 0.184 | 0.208 | 0.477 | 0.672 | 0.174 | 0.937 | 0.118 | 0.794 | 0.42
N#Cc1cnc(Nc2cc(NC[C@H]3CNCCO3)c(C(F)(F)F)cn2)cn1 [SRA737] + C=CCn1c(=O)c2cnc(Nc3ccc(N4CCN(C)CC4)cc3)nc2n1-c1cccc(C(C)(C)O)n1 [AZD1775] (first compound max 10 µM, partner max 1 µM) | 0.997 | 0.395 | 0.405 | 0.507 | 0.707 | 0.852 | 0.928 | 0.983 | 0.756 | 0.687 | 0.553 | 0.79 | 0.749 | 0.766 | 0.954 | 0.572 | 0.697 | 0.617 | 0.865 | 0.642
N#Cc1cnc(Nc2cc(NC[C@H]3CNCCO3)c(C(F)(F)F)cn2)cn1 [SRA737] + CCc1c2c(nc3ccc(O)cc13)-c1cc3c(c(=O)n1C2)COC(=O)[C@]3(O)CC [SN-38] (first compound max 10 µM, 7x7, partner max 0.3 µM) | 0.981 | 0.512 | 0.616 | 0.758 | 0.769 | 0.775 | 0.994 | 0.898 | 0.82 | 0.843 | 0.615 | 0.831 | 0.793 | 0.796 | 0.95 | 0.542 | 0.724 | 0.516 | 0.915 | 0.791
N#Cc1cnc(Nc2cc(NC[C@H]3CNCCO3)c(C(F)(F)F)cn2)cn1 [SRA737] + Nc1ccn([C@@H]2O[C@H](CO)[C@@H](O)C2(F)F)c(=O)n1 [Gemcitabine] (first compound max 10 µM, 7x7, partner max 0.3 µM) | 1 | 0.689 | 0.649 | 0.657 | 0.804 | 0.789 | 0.979 | 0.902 | 0.778 | 0.736 | 0.679 | 0.916 | 0.792 | 0.806 | 0.899 | 0.543 | 0.854 | 0.761 | 0.933 | 0.752
CC1(C)CCC(CN2CCN(c3ccc(C(=O)NS(=O)(=O)c4ccc(NCC5CCOCC5)c([N+](=O)[O-])c4)c(Oc4cnc5[nH]ccc5c4)c3)CC2)=C(c2ccc(Cl)cc2)C1 [Venetoclax] + CS(=O)(=O)CCNCc1ccc(-c2ccc3ncnc(Nc4ccc(OCc5cccc(F)c5)c(Cl)c4)c3c2)o1 [Lapatinib] (first compound max 1 µM, 7x7, partner max 10 µM) | 0.948 | 0.187 | 0.288 | 0.261 | 0.341 | 0.486 | 0.399 | 0.584 | 0.724 | 0.167 | 0.356 | 0.213 | 0.52 | 0.484 | 0.146 | 0.345 | 0.629 | 0.362 | 0.55 | 0.635

Reference: the supplement of paper PMC11061612
